According to the NIST ThermoML archive (doi:10.1021/je5010214):

Details: Liquid, Vibrating tube method

CCCCO [butan-1-ol]
Details	mass density [kg/m3]
323.15 K, 34081 kPa	811.155
323.15 K, 35113 kPa	811.773
323.15 K, 37953 kPa	813.623
323.15 K, 42011 kPa	816.075
323.15 K, 48025 kPa	819.642
323.15 K, 49934 kPa	820.799
323.15 K, 52114 kPa	821.994
323.15 K, 54964 kPa	823.594
323.15 K, 58045 kPa	825.293
323.15 K, 60050 kPa	826.448
323.15 K, 62131 kPa	827.565
323.15 K, 64999 kPa	829.093
323.16 K, 920.7 kPa	786.888
323.16 K, 27958 kPa	807.28
323.16 K, 30055 kPa	808.674
323.16 K, 33067 kPa	810.61
323.16 K, 40047 kPa	814.861
323.16 K, 44937 kPa	817.856
323.16 K, 66131 kPa	829.687
328.15 K, 97.9 kPa	781.987
328.15 K, 289.9 kPa	782.179
328.15 K, 897.5 kPa	782.733
328.15 K, 994.1 kPa	782.825
328.15 K, 1988.8 kPa	783.741
328.15 K, 2996.7 kPa	784.66
328.15 K, 5013.4 kPa	786.446
328.15 K, 6974.9 kPa	788.15
328.15 K, 9017 kPa	789.881
328.15 K, 10040 kPa	790.727
328.15 K, 24924 kPa	802.164
328.15 K, 27979 kPa	804.324
328.15 K, 29958 kPa	805.68
328.15 K, 32060 kPa	807.104
328.15 K, 33066 kPa	807.772
328.15 K, 33107 kPa	807.703
328.15 K, 34013 kPa	808.285
328.15 K, 35030 kPa	808.989
328.15 K, 38010 kPa	810.915
328.15 K, 39969 kPa	812.181
328.15 K, 41959 kPa	813.311
328.15 K, 44953 kPa	815.144
328.15 K, 47978 kPa	816.959
328.15 K, 49927 kPa	818.128
328.15 K, 51997 kPa	819.32
328.15 K, 54947 kPa	821.045
328.15 K, 57939 kPa	822.658
328.15 K, 59991 kPa	823.77
328.15 K, 61982 kPa	824.89
328.15 K, 65032 kPa	826.439
328.15 K, 66046 kPa	826.965
328.16 K, 501 kPa	782.371
328.16 K, 12210 kPa	792.522
328.16 K, 15055 kPa	794.783
328.16 K, 18061 kPa	797.122
328.16 K, 20279 kPa	798.799
328.16 K, 22013 kPa	800.057
333.15 K, 532.6 kPa	779.903
333.15 K, 897.8 kPa	780.245
333.15 K, 1987.2 kPa	781.249
333.15 K, 3023.4 kPa	782.177
333.15 K, 4997.4 kPa	783.921
333.15 K, 7002.4 kPa	785.686
333.15 K, 9032 kPa	787.401
333.15 K, 10210 kPa	788.367
333.15 K, 15008 kPa	792.251
333.15 K, 22034 kPa	797.567
333.15 K, 28040 kPa	801.782
333.15 K, 30016 kPa	803.156
333.15 K, 32067 kPa	804.524
333.15 K, 34086 kPa	805.827
333.15 K, 35075 kPa	806.492
333.15 K, 37894 kPa	808.332
333.15 K, 40111 kPa	809.759
333.15 K, 41947 kPa	810.938
333.15 K, 44974 kPa	812.823
333.15 K, 45490 kPa	813.093
333.15 K, 47936 kPa	814.509
333.15 K, 49920 kPa	815.727
333.15 K, 51953 kPa	816.927
333.15 K, 54876 kPa	818.691
333.15 K, 58057 kPa	820.5
333.15 K, 59993 kPa	821.547
333.15 K, 62049 kPa	822.689
333.15 K, 64970 kPa	824.293
333.15 K, 66005 kPa	824.853
333.16 K, 87.7 kPa	779.482
333.16 K, 303.5 kPa	779.691
333.16 K, 1003 kPa	780.346
333.16 K, 12011 kPa	789.847
333.16 K, 17992 kPa	794.568
333.16 K, 20036 kPa	796.123
333.16 K, 25027 kPa	799.667
333.16 K, 33073 kPa	805.134
338.15 K, 80.9 kPa	775.106
338.15 K, 309.8 kPa	775.333
338.15 K, 561.6 kPa	775.578
338.15 K, 898.5 kPa	775.911
338.15 K, 1014.1 kPa	776.019
338.15 K, 2936.1 kPa	777.859
338.15 K, 5018.6 kPa	779.821
338.15 K, 10034 kPa	784.276
338.15 K, 14885 kPa	788.349
338.15 K, 17956 kPa	790.925
338.15 K, 19927 kPa	792.473
338.15 K, 22041 kPa	794.077
338.15 K, 25026 kPa	796.362
338.15 K, 29994 kPa	799.911
338.15 K, 32882 kPa	801.907
338.15 K, 33937 kPa	802.603
338.15 K, 35012 kPa	803.345
338.15 K, 39987 kPa	806.717
338.15 K, 41990 kPa	808.025
338.15 K, 44978 kPa	809.926
338.15 K, 47971 kPa	811.881
338.15 K, 49999 kPa	813.099
338.15 K, 52127 kPa	814.375
338.15 K, 57940 kPa	817.865
338.15 K, 60014 kPa	819.058
338.15 K, 65012 kPa	821.872
338.15 K, 66057 kPa	822.451
338.16 K, 2000.2 kPa	776.987
338.16 K, 6917.3 kPa	781.55
338.16 K, 9046.9 kPa	783.457
338.16 K, 11959 kPa	785.981
338.16 K, 27976 kPa	798.446
338.16 K, 31949 kPa	801.318
338.16 K, 37962 kPa	805.345
338.16 K, 54992 kPa	816.085
338.16 K, 62074 kPa	820.252
338.16 K, 67534 kPa	823.221
343.15 K, 73.7 kPa	769.631
343.15 K, 297.3 kPa	769.853
343.15 K, 520.3 kPa	770.07
343.15 K, 911.7 kPa	770.459
343.15 K, 1017.7 kPa	770.563
343.15 K, 1994.6 kPa	771.497
343.15 K, 2332.5 kPa	771.83
343.15 K, 2968.3 kPa	772.434
343.15 K, 4994.8 kPa	774.313
343.15 K, 6976.6 kPa	776.117
343.15 K, 9002.6 kPa	777.941
343.15 K, 10060 kPa	778.847
343.15 K, 12025 kPa	780.506
343.15 K, 14928 kPa	782.929
343.15 K, 17975 kPa	785.398
343.15 K, 19985 kPa	786.983
343.15 K, 22033 kPa	788.56
343.15 K, 25091 kPa	790.858
343.15 K, 28045 kPa	793.012
343.15 K, 30082 kPa	794.441
343.15 K, 32170 kPa	795.891
343.15 K, 33097 kPa	796.546
343.15 K, 35030 kPa	797.771
343.15 K, 37943 kPa	799.701
343.15 K, 40012 kPa	801.058
343.15 K, 41972 kPa	802.307
